Patent EP4806899A1, “FUSED RING DERIVATIVE, PREPARATION METHOD THEREFOR AND USE THEREOF IN MEDICINE” (Shanghai Qilu Pharmaceutical Research and Development …, priority 2023, dated 2025)

Tests used:
human CYP11B2 enzyme = biological target: T1, human CYP11B2 enzyme (Homo sapiens, UniProt P19099); assay: Enzyme inhibition activity assay in G402 cells stably expressing human CYP11B2 (aldosterone production from 11-DOC, LC/MS); type: cell-based; settings: 1 µM 11-DOC, 16 hours, aldosterone detected
T1 construct: the ORF of human CYP11B1 or CYP11B2 were transfected into G402 cells; expressed in transfected cells
T1 sequence (P19099 25-503): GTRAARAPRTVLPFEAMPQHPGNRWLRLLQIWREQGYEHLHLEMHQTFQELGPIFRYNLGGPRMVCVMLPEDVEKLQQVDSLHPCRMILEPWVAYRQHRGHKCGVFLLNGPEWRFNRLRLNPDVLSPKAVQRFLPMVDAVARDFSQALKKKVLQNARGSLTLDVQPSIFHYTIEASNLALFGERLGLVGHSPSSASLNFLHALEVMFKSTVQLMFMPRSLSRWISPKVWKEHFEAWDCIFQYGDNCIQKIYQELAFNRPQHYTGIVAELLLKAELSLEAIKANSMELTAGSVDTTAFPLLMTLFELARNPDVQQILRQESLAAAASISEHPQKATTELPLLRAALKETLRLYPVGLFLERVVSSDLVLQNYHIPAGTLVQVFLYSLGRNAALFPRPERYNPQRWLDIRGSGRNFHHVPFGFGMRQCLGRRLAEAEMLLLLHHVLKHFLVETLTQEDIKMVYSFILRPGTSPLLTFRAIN
Outline: (§1)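 G402 cells stably expressing human CYP11B2 or CYP11B1, preincubated 1 h with inhibitor in DMEM/F12 plus 2.5% charcoal-stripped FCS, then 16 h with 1 µM 11-DOC or 1 µM 11-DC. Aldosterone or cortisol quantified by LC/MS; IC50 from four-parameter logistic fit versus uninhibited control.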

human CYP11B1 enzyme = biological target: T2, human CYP11B1 enzyme (Homo sapiens, UniProt P15538); assay: Enzyme inhibition activity assay in G402 cells stably expressing human CYP11B1 (cortisol production from 11-DC, LC/MS); type: cell-based; settings: 1 µM 11-DC, 16 hours, cortisol detected
T2 construct: the ORF of human CYP11B1 or CYP11B2 were transfected into G402 cells; expressed in transfected cells
T2 sequence (P15538 25-503): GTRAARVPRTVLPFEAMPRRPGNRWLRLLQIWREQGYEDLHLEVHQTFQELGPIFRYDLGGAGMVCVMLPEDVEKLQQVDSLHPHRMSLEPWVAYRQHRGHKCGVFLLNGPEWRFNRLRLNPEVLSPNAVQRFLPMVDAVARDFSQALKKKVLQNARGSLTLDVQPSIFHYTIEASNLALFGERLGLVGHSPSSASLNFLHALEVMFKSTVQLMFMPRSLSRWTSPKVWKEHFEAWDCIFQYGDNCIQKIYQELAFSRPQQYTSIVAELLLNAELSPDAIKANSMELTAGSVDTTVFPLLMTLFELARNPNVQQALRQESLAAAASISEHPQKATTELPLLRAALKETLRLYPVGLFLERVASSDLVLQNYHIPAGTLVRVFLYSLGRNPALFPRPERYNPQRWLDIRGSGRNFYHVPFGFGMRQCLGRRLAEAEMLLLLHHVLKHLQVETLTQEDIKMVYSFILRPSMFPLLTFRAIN
Outline: as §1

[1] = Pharmacokinetic determination in monkeys after gavage administration (P.O.); type: in vivo, Cynomolgus monkeys (Macaca fascicularis); settings: cynomolgus monkey, po, 1 mg/kg, plasma
Experimental: Cynomolgus monkeys (Macaca fascicularis) were used as test animals to study the pharmacokinetic behavior of the compounds of the present disclosure in plasma following gavage administration (P.O.). Plasma samples were collected at specific time points, compound concentrations in plasma were detected by LC-MS/MS, and pharmacokinetic parameters were calculated to reflect the pharmacokinetics in cynomolgus monkeys.
Cynomolgus monkeys, male, Ankaiyibo (Zhanjiang) Biotechnology Co., Ltd.
After administration to cynomolgus monkeys, venous blood samples of 0.3 mL were collected at 0.25, 0.5, 1, 2, 4, 8, and 24 hours and placed in EDTA-K2 test tubes. Plasma was separated by centrifugation at 4 °C, 4000 g for 5 minutes and stored at -80 °C.
• 1) 50 µL of plasma sample was precipitated by adding 200 µL of acetonitrile, vortex mixed, and centrifuged for 15 minutes. • 2) The processed supernatant was diluted with water and analyzed by LC/MS/MS to determine the concentration of the test compound.
Pharmacokinetic parameters were calculated using WinNonlin 8.3. Cmax represents the maximum plasma concentration, T1/2 represents the terminal elimination half-life, MRTInf represents the mean residence time, and AUC represents the area under the plasma concentration-time curve. Table 6 Pharmacokinetic Parameters of the Compounds of the Present Disclosure in Monkeys

[2H]C([2H])([2H])OC(=O)N[C@@H]1CCOc2c(-c3cc(F)c4c(ccc(=O)n4C)c3)cncc21 [Compound A50]
IC50 (human CYP11B2 enzyme): 0.0111 µM | IC50 (human CYP11B1 enzyme): 2.11 µM | Cmax ([1]; male): 1140 nM | MRT inf ([1]; male): 13 h | half-life ([1]; male): 10.5 h | AUC(0-t) ([1]; male, read-out: AUC0-24): 13.5 µM·h

CCC(=O)N[C@@H]1CCOc2c(-c3ccc4c(c3)CCC(=O)N4C)cncc21 [Compound A02-P2]
IC50 (human CYP11B2 enzyme): 0.0123 µM | IC50 (human CYP11B1 enzyme): 3.68 µM | Cmax ([1]; in vivo): 1600 nM | MRT inf ([1]; in vivo): 8.77 h | half-life ([1]; in vivo): 7.44 h | AUC(0-t) at 24 h ([1]; in vivo, read-out: AUC0-24): 12.8 µM·h
